Measurements published in patent US12674038B2, “Composition and method for microbial control for use with polymers” (MICROBAN PRODUCTS COMPANY, priority 2022, dated 2026).

System: Escherichia coli (gram-negative bacteria)
Test: Antimicrobial efficacy of polymer samples against Escherichia coli, ISO22196 test method
Settings: E. coli

With `O=C(O)c1ccccc1` [GBA, benzoic acid] the “log reduction (consistent antimicrobial efficacy)” value (5250 ppm level in TPU) was over 1 and the log reduction (TPU, 4500 ppm GBA alone) was “less than 1”.
